Columns and labels:
T. cruzi [1] = test: T. cruzi intracellular amastigote (AM) in-vitro screen; format: cell-based
Experimental: Dividing populations can be cultivated in muscle cells, fibroblasts and macrophages, following infection with trypomastigotes. After the initial infection, there is normally a period of 4-5 days during which the amastigotes divide before transforming, via the epimastigote stage, back to trypomastigotes which escape from the cell. Drug activity is measured during this 4-5 day period. A dividing host cell population, low infection rate, and the presence of trypomastigotes in the overlay can complicate the interpretation of results.
Intracellular amastigote models can use a range of muscle (skeletal and cardiac) and fibroblast (e.g. HeLa, HePa) cell lines, macrophages, and chick embryo cells. […] To overcome the problems of overgrowth of the monolayer and a low percentage of infected cells, often associated with the use of cell lines, irradiated rat L6 myoblasts are used.

T. cruzi [2] = test: T. cruzi trypomastigote (TRY) in-vitro screen; format: cell-based
Experimental: (§3) In-vitro chemotherapy screens have for many years used models involving three stages of the T. cruzi life cycle: • (1) Epimastigote. Dividing populations are easily cultivated in a range of defined and semi-defined media, but are equivalent to a vector stage of the life cycle. • (2) Trypomastigote. These are isolated from a rodent host and can be maintained as a non-dividing population for 24-48 h in media. • (3) Amastigote. Dividing populations can be cultivated in muscle cells, fibroblasts and macrophages, following infection with trypomastigotes. After the initial infection, there is normally a period of 4-5 days during which the amastigotes divide before transforming, via the epimastigote stage, back to trypomastigotes which escape from the cell. Drug activity is measured during this 4-5 day period. A dividing host cell population, low infection rate, and the presence of trypomastigotes in the overlay can complicate the interpretation of results.

T. cruzi [3] = test: T. cruzi epimastigote (EPI) in-vitro screen; format: cell-based
Experimental: as §3

T. cruzi [4] = test: T. cruzi mouse model, in-vivo
From the text: (§1) In-vitro and in-vivo models were used to test activities of a selection of many compounds. Those activities are summarized in Tables 1-3, showing variation between systems and species. Activities measured in the MP mo and HM mo models have shown the best correlation with results obtained in hamster and mouse models.

[5] = system: T.b. brucei, T.b. gambiense and T.b. rhodesiense; test: Cultivated bloodstream trypomastigote (TRY) in-vitro screen; format: cell-based
From the text: Culture systems developed in the last decade have used mammalian cell feeder layers to support the growth of dividing populations of bloodstream trypomastigotes of T. brucei spp. Some of these systems have been used in chemotherapy studies, including; (1) bovine fibroblast culture - T. brucei models to test some standard and experimental compounds, (2) murine bone marrow culture - T.b. gambiense model to screen inosine analogues and platinum and hypolipidemic compounds, and (3) Microtus embryonic fibroblast culture (MEF) - T.b. rhodesiense model to test standard and experimental drugs. These systems give a good indication of in-vivo activity (see Table 3). They measure activity against dividing cells rather than specific macromolecular synthesis pathways and can be readily established in micro-titre plates. The MEF and bone marrow cell feeder layers can be used to grow a range of strains of T. brucei spp., offering the possibility of examining variations in drug susceptibility and resistance between strains. The presence of a feeder layer, however, limits the opportunities for the automation of these systems.
as §1

[6] = system: T.b. brucei, T.b. gambiense and T.b. rhodesiense; test: African trypanosomiasis mouse model, in-vivo
Experimental: (§2) Primary screening for new trypanocides has made extensive use of rodent systems, in which host survival time is a simple indicator of drug activity. In-vitro screens have used a variety of trypomastigote types (see Table 3, below). […] Most early in-vitro screens employed a short test in which bloodstream trypomastigotes were isolated from an infected rodent and maintained for up to 24 h in a simple drug-containing media. Two significant modifications of this technique include maintaining isolated bloodstream trypomastigotes in drug-containing media for 3-4 hours at 37° C in micro-titre plates and their subsequent viability assessed by the uptake of radiolabelled precursors or motility and infectivity to mice.
as §1

[7] = system: T.b. brucei, T.b. gambiense and T.b. rhodesiense; test: Isolated bloodstream trypomastigote (TRY) in-vitro screen; format: cell-based
Experimental: as §2
In-vitro studies on isolated bloodstream trypomastigotes were also used in the rational biochemical approaches towards the chemotherapy of T. brucei infections involving inhibitors of carbohydrate catabolism salicyl hydroxamic acid plus glycerol), of polyamine synthesis (methylgyoxal bis-guanylhydrazone and - DFMO), and of surface coat glycoprotein synthesis (Tunicamycin). In these studies, activity of the compounds are shown in-vitro and in-vivo, whereas the sensitivity of isolated bloodstream trypomastigotes to toxic oxygen radicals generated by naphthoquinones was not shown by the parasites in mice. The activity of the standard anti-trypanosomals-melarsoprol, pentamidine and suramin and tested compounds according to the present invention in in-vitro systems is shown in Table 3.
as §1

SMILES	activity, intracellular AM (T. cruzi [1]; T. cruzi strain Sonya)	activity, intracellular AM (T. cruzi [1]; T. cruzi strain Y)	activity, TRY (T. cruzi [2]; T. cruzi strain Sonya)	activity, TRY (T. cruzi [2]; T. cruzi strain Y)	activity, EPI (T. cruzi [3]; T. cruzi strain MR)	activity, EPI (T. cruzi [3]; T. cruzi strain Sonya)	activity, EPI (T. cruzi [3]; T. cruzi strain Y)	activity, mouse model (T. cruzi [4]; T. cruzi strain Sonya)	activity, mouse model (T. cruzi [4]; T. cruzi strain Y)	activity, cultivated bloodstream TRY [5]	activity, mouse model [6]	activity, isolated bloodstream TRY [7]	activity, intracellular AM (T. cruzi [1]; T. cruzi strain WBH)	activity, mouse model (T. cruzi [4]; T. cruzi strain CL)	activity, mouse model (T. cruzi [4]; T. cruzi strain Tu)	activity, mouse model (T. cruzi [4]; T. cruzi strain WBH)
O=C(Cn1ccnc1[N+](=O)[O-])NCc1ccccc1 [Benznidazole, benznidazole, reference compound]	++(Y,Sonya)	++(Y,Sonya)	++(Y,Sonya)	++(Y,Sonya)	++(Y,MR, Sonya)	++(Y,MR, Sonya)	++(Y,MR, Sonya)	+	++							
Nc1nc(N)nc(Nc2ccc([As]3SCC(CO)S3)cc2)n1 (centres unmarked) [Melarsoprol, melarsoprol, reference compound]										+ +	+ +	+ +				
CC1CS(=O)(=O)CCN1/N=C/c1ccc([N+](=O)[O-])o1 (centres unmarked) [Nifurtimox, nifurtimox]	++(Y,WBH, Sonya)	++(Y,WBH, Sonya)						+	++ and +				++(Y,WBH, Sonya)	++ and +	+	++
